Measurements published in publication PMC6027146, “Synthesis and Structure-Activity Relationships of (−)-cis-N-Normetazocine-Based LP1 Derivatives” (Pharmaceuticals, 2018).

Experiments:
recombinant human DOR = molecular target: T1, recombinant human DOR (Homo sapiens, UniProt P41143); assay: Calcium mobilization assay, CHO-DOR cells expressing GαqG66Di5; format: cell-based
T1 construct: expressed in transfected cells; supplied by Dr. Eva Varga (University of Arizona); infected with a retrovirus for GαqG66Di5
T1 sequence (P41143 whole entry): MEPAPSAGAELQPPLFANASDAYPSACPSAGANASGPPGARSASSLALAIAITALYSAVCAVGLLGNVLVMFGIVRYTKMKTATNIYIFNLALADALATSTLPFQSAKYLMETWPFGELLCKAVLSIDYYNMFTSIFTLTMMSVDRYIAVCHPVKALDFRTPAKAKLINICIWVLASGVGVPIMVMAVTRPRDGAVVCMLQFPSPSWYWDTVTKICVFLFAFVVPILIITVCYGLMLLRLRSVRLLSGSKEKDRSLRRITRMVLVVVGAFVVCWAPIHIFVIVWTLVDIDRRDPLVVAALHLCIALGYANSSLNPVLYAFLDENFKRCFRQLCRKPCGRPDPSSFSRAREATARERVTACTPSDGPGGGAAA
Method: (§1) The pharmacological characterization of LP1 derivatives 2 and 10–16 was performed by calcium mobilization assay (Table 2). This procedure was preliminarily validated through a series of experiments where the effects of DPDPE, dermorphin, and dynorphin A were assessed in CHO cells expressing the human recombinant opioid receptors and Gαqi5 or GαqG66Di5 chimeric proteins.
(§2) Chinese hamster ovary (CHO) cells expressing the recombinant human MOR and KOR (CHO^MOR and CHO^KOR) were kindly provided by Dr. Larry Toll (SRI International, Menlo Park, CA, USA), and CHO cells expressing the recombinant human DOR (CHO^DOR) were supplied by Dr. Eva Varga (Department of Medical Pharmacology, The University of Arizona, Tucson, AZ, USA). CHO cells lines permanently coexpressing the opioid receptors and the C-terminally modified Gαqi5 were prepared by infecting the CHO lines described above with a recombinant retrovirus expressing the chimeric α subunit and the hygromycin resistance gene. Similarly, CHO cells lines permanently coexpressing DOR and the C-terminally modified GαqG66Di5 were prepared by infecting the CHO lines described above with a recombinant retrovirus expressing the chimeric α subunit and the hygromycin resistance gene. Polyclonal cell lines were generated using the pantropic retroviral expression system form BD-Clontech, as described previously. Stable lines were selected under hygromycin B (100 μg/mL) and geneticin (600 μg/mL) for 2–3 weeks after the infection.
(§3) CHO cells, expressing human opioid receptors and the Gαqi5 protein, and CHODOR, expressing the GαqG66Di5 protein, were maintained in culture medium consisting of Dulbecco minimum essential medium (DMEM) and Ham F-12 (1:1) (50/50) supplemented with 10% fetal calf serum (FCS), L-glutamine (2 mM), geneticin (200 μg/mL; G418), hygromycin B (100 μg/mL) at 37 °C in 5% CO2 humidified air. When confluence was reached (3–4 days), cells were subcultured as required using trypsin/EDTA, and used for experimentation. The different cell lines were seeded at a density of […] into black 96-well, clear-bottomed plates. After 24 h incubation, the cells were loaded with medium supplemented with 2.5 mM probenecid, 3 μM of the calcium sensitive fluorescent dye Fluo-4 AM, and 0.01% pluronic acid, for 30 min at 37 °C. Afterwards, the loading solution was aspirated and 100 μL/well of assay buffer—HBSS supplemented with 20 mM HEPES, 2.5 mM probenecid and 500 μM Brilliant Black (Aldrich, St. Louis, MO, USA)—was added. Serial dilutions of ligands for experimental use were made in HBSS/HEPES (20 mM) buffer (containing 0.005% BSA fraction V). After placing both plates (cell culture and compound plate) into the FlexStation II (Molecular Device, Union City, San Jose, CA 94587, USA), fluorescence changes were measured at room temperature. Online additions were carried out in a volume of 50 μL/well. Antagonists were incubated 15 min before the addition of the agonist. Maximum change in fluorescence, expressed in percent of baseline fluorescence, was used to determine agonist response.
(§4) Analysis of the binding data was performed using the Origin 7.5 software (OriginLab Corporation, Northampton, MA, USA). In calcium mobilization experiments, data were analyzed by non-linear curve fitting equation, using GraphPad 5.0 software. […] Ligand efficacy was expressed as intrinsic activity (α), calculated as the ratio between the Emax of the ligand and that of the respective standards. Calcium mobilization data were expressed as FIU (fluorescence intensity units) in percent, over the baseline. Agonist potencies are given as pEC50 (the negative logarithm to base 10 of the molar concentration of an agonist that produces 50% of the maximal possible effect, Emax). Concentration response curves to agonists were fitted with the following equation: Effect = baseline + (Emax − baseline)/(1+10^(LogEC50 − X) ∗ HillSlope) where X is the agonist concentration. […]

human-KOR = human-KOR (Homo sapiens, UniProt P41145); assay: Calcium mobilization assay, CHO-KOR cells expressing Gαqi5; format: cell-based; design: expressed in transfected cells; gift of Dr. Larry Toll (SRI International); infected with a retrovirus for Gαqi5; conditions: agonist mode; Inactive = inactive at 10 μM; crc incomplete = incomplete concentration response curve at 10 μM; listed as LP1 (1)
Chain of human-KOR (P41145 whole entry): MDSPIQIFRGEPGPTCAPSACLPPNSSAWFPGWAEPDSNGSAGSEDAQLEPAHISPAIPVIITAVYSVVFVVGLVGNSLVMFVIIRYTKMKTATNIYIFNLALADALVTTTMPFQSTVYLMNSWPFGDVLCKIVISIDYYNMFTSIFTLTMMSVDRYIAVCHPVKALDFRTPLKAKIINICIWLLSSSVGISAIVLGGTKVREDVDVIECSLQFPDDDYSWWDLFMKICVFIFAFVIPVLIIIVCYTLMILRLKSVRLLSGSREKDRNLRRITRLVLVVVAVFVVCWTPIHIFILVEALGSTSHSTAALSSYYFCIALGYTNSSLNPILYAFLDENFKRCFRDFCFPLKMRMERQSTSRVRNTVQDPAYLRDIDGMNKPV
Method: as §1, §2, §3, §4

SMILES: C[C@H]1[C@H]2Cc3ccc(O)cc3[C@]1(C)CCN2CCC(=O)Nc1ccccc1 [LP1, 3-[(2R,6R,11R)-8-hydroxy-6,11-dimethyl-1,4,5,6-tetrahydro-2,6-methano-3-benzazocin-3(2H)-yl]-N-phenylpropanamide, reference compound]
- EC50 (recombinant human DOR): 1120 nM
- functional profile at DOR (recombinant human DOR; calcium mobilization): partial DOR agonist
- KOR pEC50 (CL95%) (human-KOR): crc incomplete ^d
